The values that follow come from patent publication US8546582B2, “Sulfenamide, vulcanization accelerator containing the sulfenamide for rubber, and process for producing the vulcanization accelerator” (Ouchi Shinko Chemical Industrial Co., Ltd., priority 2007, dated 2013).

Molecules are shown by their SMILES. Several values for one entry are separate records, joined by “and”; a condition that tells them apart may be missing. Identical values can stand only once.

A word on the melting point: it is the temperature, or range, at which the solid turns liquid.

For data set [1] the following is noted: stated in TRGS552 (non-patent document 3); cited from earlier work.
The test system of data set [2] is microorganisms. The settings on record: safety checks of existing chemical substances; cited from earlier work.
Data set [3] is described as follows: 1-octanol/water distribution coefficient by high-performance liquid chromatography (JIS Z7260-117). The settings on record: HPLC. Type of data set: physicochemical. How it is done:
For N-methyl-N-t-butylbenzothiazole-2-sulfenamide (BMBS) synthesized in Example 1, N-ethyl-N-t-butylbenzothiazole-2-sulfenamide (BEBS) synthesized in Example 2, N-n-propyl-N-t-butylbenzothiazole-2-sulfenamide (BPBS) synthesized in Example 3, N-n-butyl-N-t-butylbenzothiazole-2-sulfenamide (BBBS) synthesized in Example 4, and N,N-dicyclohexylbenzothiazole-2-sulfenamide (DCBS) which is a conventional compound, the 1-octanol/water distribution coefficient was measured by high-performance liquid chromatography according to JIS Z7260-117.

Data set [4] has as its system fish and shellfish. The settings on record: Official Bulletin of Economy, Trade and Industry, Dec. 22, 2005; cited from earlier work.
For data set [5], the system named is carp. Put plainly: test on the degree of bioconcentration of a chemical substance in the body of fish and shellfish. Type of data set: in vivo. The settings on record: for Concentration ratio (times), average / Concentration ratio (times): carp; for Concentration ratio (times): single values. How it is done:
For BEBS synthesized in Example 2, a test on the degree of bioconcentration of a chemical substance in the body of fish and shellfish was carried out according to “Shinki Kagaku Busshitsu To Nikakaru Shiken No Hoho Nitsuite (Circular on Test Methods of New Chemical Substances)” (Yakushokuhatsu No. 1121002 dated Nov. 21, 2003, Seikyoku No. 2 dated on Nov. 13, 2003, Kanhokihatsu No. 03121002).
Test bioconcentration: First bioconcentration area 1 μg/L • Second bioconcentration area 0.1 μg/L
Exposure duration: 22 days
Exposure method: Continuous flow-through
Analytical method: High-performance liquid chromatography

[6] abbreviates: first concentration area 1 μg/L, after 14 days.
Where [7] appears, read: first concentration area 1 μg/L, after 22 days.
Setting [8] is: second concentration area 0.1 μg/L, after 14 days.
Where [9] appears, read: second concentration area 0.1 μg/L, after 22 days.

As to `O=NN(C1CCCCC1)C1CCCCC1` [N-nitrosodicyclohexylamine], in data set [1], the carcinogenicity entry was “not carcinogenic”.

`CCCN(Sc1nc2ccccc2s1)C(C)(C)C` [BPBS, N-n-propyl-N-t-butylbenzothiazole-2-sulfenamide]: the melting point lay in the range of 55 to 56 °C.

`CCN(N=O)C(C)(C)C` [N-nitroso-N-ethyl-t-butylamine]: the carcinogenicity entry in data set [1] is recorded as “not carcinogenic”.

On to `CCCCN(Sc1nc2ccccc2s1)C(C)(C)C` [BBBS, N-n-butyl-N-t-butylbenzothiazole-2-sulfenamide], for which the melting point fell in the range of 55 to 56 °C.

Consider `c1ccc2sc(SN(C3CCCCC3)C3CCCCC3)nc2c1` [DCBS, N,N-dicyclohexylbenzothiazole-2-sulfenamide], for which the degradability entry in data set [2] is “hardly degradable”. For the same compound, in data set [3] (read-out: logPow), the chromatographic logP was found to be 7.4. Also, the “concentration ratio (BCFSS)” value in data set [4] is 6000 times.

For `CN(N=O)C(C)(C)C` [N-nitroso-N-methyl-t-butylamine], the carcinogenicity result in data set [1] is reported as “not carcinogenic”.

Consider `CCN(Sc1nc2ccccc2s1)C(C)(C)C` [BEBS, N-ethyl-N-t-butylbenzothiazole-2-sulfenamide], for which the “Concentration ratio (times), average” value is given as 180 times in data set [5] (setting [6]), 170 times in data set [5] (setting [7]), 180 times in data set [5] (setting [8]) and 160 times in data set [5] (setting [9]). Besides, the “Concentration ratio (times)” value in data set [5] (setting [6]) is 120 times and 240 times; in data set [5] (setting [7]), 180 times and 170 times; in data set [5] (setting [8]), 180 times and 190 times; in data set [5] (setting [9]), 180 times and 130 times. Also, in data set [5] (preliminary test, in 22 days), the bioaccumulation or bioconcentration is 180 times.

Regarding `CCCCN(N=O)C(C)(C)C` [N-nitroso-N-n-butyl-t-butylamine], the carcinogenicity entry in data set [1] is “not carcinogenic”.

The compound `CN(Sc1nc2ccccc2s1)C(C)(C)C` [BMBS, N-methyl-N-t-butyl benzothiazole-2-sulfenamide] registered a logPow in data set [3] of 4.5.
